Source: patent US10034886B2, “GLP-1 receptor modulators” (Celgene International II SÀRL, priority 2014, dated 2018)

Target: T1, GLP-1R (Homo sapiens, UniProt P43220)
T1 construct: host or cells: GLP-1R CRE-bla CHO-K1 cells
Test: EC20 GLP-1(9-36) PAM cAMP assay: dose response of compound in the presence of fixed concentration of GLP-1(9-36)
Format: cell-based
Settings: GLP-1R CRE-bla CHO-K1 cells, compound dose response with fixed concentration of GLP-1(9-36), read-out: EC20 GLP-1(9-36) PAM EC50
Outline: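 GLP-1R CRE-bla CHO-K1 cells treated 30 min at 37 °C with 12-point compound dose response plus fixed EC20 GLP-1(9-36), with IBMX, in HBSS/HEPES/0.1% BSA pH 7.4. Total cAMP measured by luminescent detection against standard curve; EC50 and Emax from non-linear regression.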

T1 sequence (P43220 24-463): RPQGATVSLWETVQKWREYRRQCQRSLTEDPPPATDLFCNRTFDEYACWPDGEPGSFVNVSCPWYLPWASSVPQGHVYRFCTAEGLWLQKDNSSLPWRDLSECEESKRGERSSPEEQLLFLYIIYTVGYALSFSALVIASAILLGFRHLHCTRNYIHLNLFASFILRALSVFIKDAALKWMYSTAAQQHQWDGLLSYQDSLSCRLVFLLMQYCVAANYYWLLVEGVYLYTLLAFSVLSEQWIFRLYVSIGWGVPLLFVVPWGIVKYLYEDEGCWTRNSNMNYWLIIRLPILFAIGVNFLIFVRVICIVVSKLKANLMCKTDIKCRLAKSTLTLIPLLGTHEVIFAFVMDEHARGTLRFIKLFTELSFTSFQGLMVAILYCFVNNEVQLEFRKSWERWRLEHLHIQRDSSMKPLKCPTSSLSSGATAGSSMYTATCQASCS
T1 sequence (P01275 100-127 partner limits assumed): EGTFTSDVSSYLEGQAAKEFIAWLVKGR

EC50 [nM]	Structure (SMILES)
2500 to 5000	CC(C)(C)c1ccc(C(=O)N[C@@H](Cc2ccc(-c3ncc(-c4ccc(-c5ccccc5)c(F)c4)cn3)cc2)C(=O)O)s1 [Compound 1351]
< 800	CCC(CC)Oc1ccc(-c2ccc(-c3cnc(-c4ccc(C[C@H](NC(=O)c5ccc(C(C)(C)C)s5)C(=O)N[C@H](C)C(=O)O)cc4)nc3)cc2)cc1 [Compound 1298]
2500 to 5000	CCCCC[C@H]1CC[C@H](c2ccc(-c3cnc(-c4ccc(C[C@H](NC(=O)c5ccc(C(C)(C)C)s5)C(=O)N[C@H](C)C(=O)O)cc4)nc3)cc2)CC1 [Compound 1310]
< 800	CCC[C@H]1CC[C@H](C2CCN(c3cnc(-c4ccc(C[C@H](NC(=O)c5ccc(C(C)(C)C)s5)C(=O)N5CC[C@H](C(=O)O)C5)cc4)nc3)CC2)CC1 [Compound 1416]
2500 to 5000	CC(C)(C)c1ccc(-c2ccc(-c3cnc(-c4ccc(C[C@H](NC(=O)c5ccc(C(C)(C)C)s5)C(=O)O)cc4)nc3)cc2)cc1 [Compound 1348]
2500 to 5000	C[C@@H](NC(=O)[C@H](Cc1ccc(-c2ncc(/C=C/c3ccsc3)cn2)cc1)NC(=O)c1ccc(C(C)(C)C)s1)C(=O)O [Compound 1257]
800 to 2500	CCC[C@H]1CC[C@H](C2CCN(c3cnc(-c4ccc(C[C@H](NC(=O)c5ccc(OC(C)C)cc5)C(=O)N5CC(C(=O)O)C5)cc4)nc3)CC2)CC1 [Compound 1535]
< 800	CCC[C@H]1CC[C@H](C2CCN(c3cnc(-c4ccc(C[C@H](NC(=O)c5ccc(C(C)(C)C)s5)C(=O)N[C@@H](CN)C(=O)O)cc4)nc3)CC2)CC1 [Compound 1472]
< 800	CCCCCCCOc1ccc(-c2cnc(-c3ccc(C[C@H](NC(=O)c4ccc(C(C)(C)C)s4)C(=O)N4CC(CN)(C(=O)O)C4)cc3)nc2)cc1 [Compound 1280]
800 to 2500	CC[C@H]1CC[C@H](c2ccc(-c3cnc(-c4ccc(C[C@H](NC(=O)c5ccc(C)cc5)C(=O)O)cc4)nc3)cc2)CC1 [Compound 1371]
< 800	CCC[C@H]1CC[C@H](C2CCN(c3cnc(-c4ccc(C[C@H](NC(=O)c5ccc(OC(C)(C)C)cc5)C(=O)N5CC(C(=O)O)C5)cc4)nc3)CC2)CC1 [Compound 1524]
< 800	CCC[C@H]1CC[C@H](C2CCN(c3cnc(-c4ccc(C[C@H](NC(=O)c5ccc(C(C)(C)C)s5)C(=O)O)cc4)nc3)CC2)CC1 [Compound 1439, (S)-2-(5-(tert-butyl)thiophene-2-carboxamido)-3-(4-(5-(4-((1s,4r)-4-propylcyclohexyl)piperidin-1-yl)pyrimidin-2-yl)phenyl)propanoic acid]

Same assay, conditions: dose response of compound in presence of fixed concentration of GLP-1(9-36), GLP-1R CRE-bla CHO-K1 cells, read-out: EC20 GLP-1(9-36) PAM EC50

Structure (SMILES)	EC50 [nM]
CCCCCOc1ccc(-c2cnc(-c3ccc(C[C@H](NC(=O)c4ccc(C(C)(C)C)cc4)C(=O)NCCC(=O)O)cc3)nc2)cc1 [Compound 710]	5000 to 10000
CCCCCCCOc1ccc(-c2cnc(-c3ccc(C[C@H](NC(=O)c4ccc(C(C)(C)C)s4)C(=O)NC(Cc4ccc(Cl)cc4)C(=O)O)cc3)nc2)cc1 (some centres unmarked) [Compound 615]	5000 to 10000
CCCCCCCOc1ccc(-c2cnc(-c3ccc(C[C@H](NC(=O)Cc4ccc(OCCCC)cc4)C(=O)N4CC[C@H](C(=O)O)C4)cc3)nc2)cc1 [Compound 1095]	2500 to 5000
CCCc1ccc(-c2ccc(-c3cnc(-c4ccc(C[C@H](NC(=O)c5ccc(C(C)(C)C)s5)C(=O)O)cc4)nc3)c(F)c2)cc1 [Compound 1061]	2500 to 5000
CCCCCCCOc1ccc(-c2nc(-c3ccc(C[C@H](NC(=O)c4ccc(C(C)(C)C)cc4)C(=O)N[C@H](C)C(=O)O)cc3)no2)cc1 [Compound 801]	5000 to 10000
CCCCCCCOc1ccc(-c2cnc(-c3ccc(C[C@H](NC(=O)c4ccc(C(C)(C)CC)cc4)C(=O)N4CC[C@H](C(=O)O)C4)cc3)nc2)cc1 [Compound 859]	2500 to 5000
CCCCCc1ccc(-c2cnc(-c3ccc(C[C@H](NC(=O)c4ccc(C(C)(C)C)cc4)C(=O)NCCC(=O)O)cc3)nc2)cc1 [Compound 676]	2500 to 5000
CCCCCCCOc1ccc(-c2cnc(-c3ccc(C[C@H](NC(=O)c4ccc(C(C)(C)C)cc4OC)C(=O)N4CC[C@H](C(=O)O)C4)cc3)nc2)cc1 [Compound 852]	2500 to 5000
CCCCCCCOc1ccc(-c2cnc(-c3ccc(C[C@H](NC(=O)c4ccc(C(C)(C)C)cc4OCC)C(=O)N[C@H](C)C(=O)O)cc3)nc2)cc1 [Compound 836]	2500 to 5000
C[C@@H](NC(=O)[C@H](Cc1ccc(-c2ncc(-c3ccc4c(C5CCCCO5)c(O)ccc4c3)cn2)cc1)NC(=O)c1ccc(C(C)(C)C)s1)C(=O)O (some centres unmarked) [Compound 1031]	2500 to 5000
CCCCCCCOc1ccc(-c2cnc(-c3ccc(C[C@H](NC(=O)c4ccc(C5CC5)cc4)C(=O)N4CC[C@H](C(=O)O)C4)cc3)nc2)cc1 [Compound 857]	5000 to 10000
CCCC(C)COc1ccc(-c2cnc(-c3ccc(C[C@H](NC(=O)c4ccc(C(C)(C)C)cc4)C(=O)NCCC(=O)O)cc3)nc2)cc1 (some centres unmarked) [Compound 707]	5000 to 10000

The remaining lines, values ahead:

EC50 [nM]	Structure (SMILES)
800 to 2500	CCCCCCCOc1ccc(-c2cnc(-c3ccc(C[C@H](NC(=O)c4ccc(O)c(F)c4)C(=O)NC(C(=O)O)C(O)c4ccccc4)cc3)nc2)cc1 (some centres unmarked) [Compound 960]
800 to 2500	CCCCCCCOc1ccc(-c2cnc(-c3ccc(C[C@H](NC(=O)c4ccc(C(C)(C)CC)cc4)C(=O)N[C@H](C)C(=O)O)cc3)nc2)cc1 [Compound 834]
800 to 2500	C[C@@H](NC(=O)[C@H](Cc1ccc(-c2ncc(/C=C\c3ccccc3)cn2)cc1)NC(=O)c1ccc(C(C)(C)C)s1)C(=O)O [Compound 1050]
800 to 2500	CCCCCCCOc1ccc(-c2cnc(-c3ccc(C[C@H](NC(=O)c4ccc(C(C)(C)C)cc4)C(=O)NC(CCCC(=O)O)C(=O)O)cc3)nc2)cc1 (some centres unmarked) [Compound 573]
800 to 2500	CCCCc1ccc(-c2ccc(-c3cnc(-c4ccc(C[C@H](NC(=O)c5ccc(C(C)(C)C)s5)C(=O)N[C@H](C)C(=O)O)cc4)nc3)cc2)cc1 [Compound 1135]
800 to 2500	CCCCCCCOc1ccc(-c2cnc(-c3ccc(C[C@H](NC(=O)c4ccc(C(C)(C)C)cc4)C(=O)N4CC[C@H](N)[C@@H](C(=O)O)C4)cc3)nc2)cc1 [Compound 582]
800 to 2500	C[C@@H](NC(=O)[C@H](Cc1ccc(-c2ncc(-c3ccc(N(c4ccccc4)c4ccccc4)cc3)cn2)cc1)NC(=O)c1ccc(C(C)(C)C)s1)C(=O)O [Compound 1015]
800 to 2500	CCCCCCCOc1ccc(-c2cnc(-c3ccc(C[C@H](NC(=O)c4ccc(CCC)s4)C(=O)N4CC[C@H](C(=O)O)C4)cc3)nc2)cc1 [Compound 864]
800 to 2500	CCCCCCCOc1ccc(-c2cnc(-c3ccc(C[C@H](NC(=O)c4ccc(C(C)(C)C)cc4)C(=O)N[C@@H](CCN)C(=O)O)cc3)nc2)cc1 [Compound 475]
800 to 2500	CCCCCCCOc1ccc(-c2cnc(-c3ccc(C[C@H](NC(=O)c4ccc(C(C)(C)C)s4)C(=O)N4CC(c5nn[nH]n5)C4)cc3)nc2)cc1 [Compound 978]
800 to 2500	CC(C)(C)c1ccc(C(=O)N[C@@H](Cc2ccc(-c3ncc(-c4ccc(OCC5CCCC5)cc4)cn3)cc2)C(=O)NC(C(=O)O)C(O)c2ccccc2)s1 (some centres unmarked) [Compound 940]
< 800	CC[C@H]1CC[C@H](c2ccc(-c3cnc(-c4ccc(C[C@H](NC(=O)c5ccc(CC(C)C)cc5)C(=O)N5CC(C(=O)O)C5)cc4)nc3)cc2)CC1 [Compound 1155]
800 to 2500	CCCCCCCOc1ccc(-c2cnc(-c3ccc(C[C@H](NC(=O)c4ccc(C(C)(C)C)s4)C(=O)N[C@H](CC(=O)NC)C(=O)O)cc3)nc2)cc1 [Compound 663]
< 800	CCCCCCCOc1ccc(-c2cnc(-c3ccc(C[C@H](NC(=O)c4ccc(C(C)(C)C)s4)C(=O)NCC4(C(=O)OC)CCNCC4)cc3)nc2)cc1 [Compound 605]
< 800	CCCCCCCOc1ccc(-c2cnc(-c3ccc(C[C@H](NC(=O)c4ccc(C(C)(C)C)s4)C(=O)NC(Cc4c[nH]c5ncccc45)C(=O)O)cc3)nc2)cc1 (some centres unmarked) [Compound 626]
800 to 2500	CCCCCCCOc1ccc(-c2cnc(-c3ccc(C[C@H](NC(=O)c4ccc(C(C)(C)C)s4)C(=O)N[C@@H](Cc4ccccc4)C(=O)O)cc3)nc2)cc1 [Compound 648]
800 to 2500	CCCCCCCOc1ccc(-c2cnc(-c3ccc(C[C@H](NC(=O)c4ccc(C(C)(C)C)s4)C(=O)N4CCC[C@H]4C(=O)O)cc3)nc2)nc1 [Compound 1064]
800 to 2500	CCOC1CC(c2ccc(-c3cnc(-c4ccc(C[C@H](NC(=O)c5ccc(C(C)(C)C)s5)C(=O)N[C@H](C)C(=O)O)cc4)nc3)cc2)C1 (some centres unmarked) [Compound 1130]
800 to 2500	CCCCCCCOc1ccc(-c2cnc(-c3ccc(C[C@H](NC(=O)c4ccc(C(C)(C)C)s4)C(=O)N[C@@H](CC(=O)N(C)CCN(C)C)C(=O)O)cc3)nc2)cc1 [Compound 520]
800 to 2500	CCCCCCCOc1ccc(-c2cnc(-c3ccc(C[C@H](NC(=O)c4ccc(C(C)(C)C)cc4)C(=O)NCCC(=O)O)cc3)nc2)cc1C1CC1 [Compound 704]
800 to 2500	CCCCCCCOc1ccc(-c2cnc(-c3ccc(C[C@H](NC(=O)c4cnc(C(C)(C)C)nc4)C(=O)N4CC[C@H](C(=O)O)C4)cc3)nc2)cc1 [Compound 856]
800 to 2500	CCCCCCCOc1ccc(-c2cnc(-c3ccc(C[C@H](NC(=O)c4ccc(C(C)(C)C)s4)C(=O)N4CCC(CC(=O)O)C4)cc3)nc2)cc1 (some centres unmarked) [Compound 613]
< 800	C[C@@H](NC(=O)[C@H](Cc1ccc(-c2ncc(-c3ccc(-c4ccc(OC(F)(F)F)cc4)cc3F)cn2)cc1)NC(=O)c1ccc(C(C)(C)C)s1)C(=O)O [Compound 1171]
800 to 2500	C[C@@H](NC(=O)[C@H](Cc1ccc(-c2ncc(-c3ncc(-c4ccccc4)cn3)cn2)cc1)NC(=O)c1ccc(C(C)(C)C)s1)C(=O)O [Compound 1132]
< 800	CCCCCCCOc1ccc(-c2cnc(-c3ccc(C[C@H](NC(=O)c4ccc(C(C)(C)C)s4)C(=O)N[C@@H](Cc4cn(C)cn4)C(=O)O)cc3)nc2)cc1 [Compound 593]
< 800	CCCCCCCOc1ccc(-c2cnc(-c3ccc(C[C@H](NC(=O)c4ccc(C(C)(C)C)s4)C(=O)NC(C(=O)O)[C@@H](O)c4ccccc4)cc3)nc2)cc1 (some centres unmarked) [Compound 651]
